This passage reports activation, EC50 and Emax results from patent US9133206B2, “Benzodiazepine and pyridodiazepine derivatives” (AbbVie Inc., priority 2010, dated 2015).

Molecules are shown by their SMILES.

The subject of the assay is SK-N-SH human neuroblastoma cells. Briefly: Serum Deprivation/JC-1 Mitochondrial Membrane Potential (MMP) Assay. As to conditions: Homo sapiens; for activation at 3 µM: single dose 3 μM, JC-1 ratio normalized to peak value for 10 μM dimebolin (n=2-4), read-out: JC-1 max % (@ 3 μM); for activation at 3 µM / Emax: serum deprivation; for EC50 / Emax: SK-N-SH; for EC50: 18 h, serum deprivation ~18 hours, JC-1 ratio normalized to peak value for 10 μM dimebolin, single curve fit to mean data of n=2-3; for Emax: percent maximal intensity in JC-1 ratio normalized to peak value for 10 μM dimebolin, read-out: JC-1 max %. The assay is classed as cell-based. The source says: The method also involves a high-throughput assay using serum-deprivation conditions involving neuronal cells to screen for compounds that increase or preserve mitochondrial membrane potential. Such compounds can be found to aid in rescuing cells from energy-depletion that occurs in several neurodegenerative states. Mitochondrial-mediated apoptosis occurs in response to a wide range of apoptotic stimuli including p^53, c-myc, DNA damage, prooxidants, chemotherapeutic agents, serum starvation and death receptor activation (Lin C—H., Lu Y-Z., Cheng, F-C., Chu L-F. and Hsuch C-M. Bax-regulated mitochondrial-mediated apoptosis is responsible for the in vitro ischemia induced neuronal cell death of Sprague Dawley rat. Neuroscience Lett. 2005, 387, 22-27).
Thus, this stress inducer, serum deprivation, combined with monitoring changes in the mitochondrial membrane potential in a 96-well format allows for the establishment of an efficient high-throughput screen (HTS) in order to evaluate the ability of compounds to increase mitochondrial membrane potential in the presence of stress and preserve health of the cell. Exemplary procedures for conducting such high-throughput assay are provided below.
SK-N-SH human neuroblastoma cells obtained from American Type Culture Collection (Rockville, Md.) were maintained in the log phase of growth in Minimal Essential Media (MEM), 10% heat inactivated fetal calf serum and 100 units/mL antibiotic-antimycotic (AA). Cells were cultured and maintained in a humidified incubator at 37° C. under 5% CO2 and 95% air. Cells were trypsinized (0.25%) and subcultured every 3 days and used from 15-18 passages. All cell culture supplies were obtained from Invitrogen (Carlsbad, Calif.).
SK-N-SH cells were plated 2-3 days in advance at a concentration of 50,000 cells/well onto collagen coated black-walled 96 well plates (Becton-Dickinson, Bedford, Mass.) in a total volume of […]. On day of experimental treatment, the media containing serum was aspirated from each well and rinsed once with MEM/1% AA without serum. The cells then were incubated overnight in 100 μL of MEM/1% AA (no serum) with and without dimebolin or novel chemical entities overnight for ˜18 hours. The following day, JC-1 dye (5,5′,6,6′-tetrachloro-1,1′,3,3′-tetraethylbenzimidazolcarbocyanide) was diluted 1:10 into MEM media according to the JC-1 Mitochondrial Membrane Potential Assay Kit: (Cayman Chemical Company, Ann Arbor, Mich.) and then 10 μL of the JC-1 dye solution was added to each well. The plates were centrifuged for 5 minutes at 400×g at room temperature followed by 40 minute incubation at 37° C. The plates were washed twice with 200 μL of provided Assay Buffer followed an addition of 100 μL of Assay Buffer to each well. The plates were read with an excitation and emission of 560 nm and 595 nM for red fluorescence and with an excitation and emission of 485 nm and 535 nM for green fluorescence to determine the final JC-1 value taking the red to green fluorescence ratio. This assay is based on change in mitochondrial membrane potential (MMP) using this lipophilic cationic dye, JC-1, by monitoring the changes in the ratio of red to green fluorescence as the MMP depolarizes. This change in MMP reflects the health of the cell with healthy, viable cells have a high JC-1 ratio and high MMP whereas apoptotic, unhealthy cells have a low JC-1 ratio or low MMP.
For the ability of compounds to reverse the stress due to serum deprivation and increase the JC-1 ratio, the percent maximal intensity in JC-1 ratio was normalized to that induced by the peak value for 10 μM dimebolin and plotted against the compound concentration to calculate EC50 values and to control for plate-to-plate variability. Concentration-response data were analyzed using GraphPad Prism (San Diego, Calif.); the EC50 values were derived from a single curve fit to the mean data of n=2-3, in duplicates. […]

In the case of `O=C(Nc1nccs1)N1Cc2ccccc2N2CCN(Cc3ccccc3)CC2C1` (stereo not shown) [Example 159, 3-benzyl-N-(1,3-thiazol-2-yl)-1,2,3,4,4a,5-hexahydropyrazino[1,2-a][1,4]benzodiazepine-6(7H)-carboxamide], the activation at 3 µM was determined as 64%.
Regarding `COCCCNC(=O)N1Cc2ccccc2N2CCN(Cc3ccccc3)CC2C1` (stereo not shown) [Example 166, 3-benzyl-N-(3-methoxypropyl)-1,2,3,4,4a,5-hexahydropyrazino[1,2-a][1,4]benzodiazepine-6(7H)-carboxamide], the EC50 is 0.765 µM and the Emax is 181%.
On to `c1ccc(CN2CCN3c4ncccc4NCCC3C2)cc1` (stereo not shown) [Example 52, 9-benzyl-5,6,7,7a,8,9,10,11-octahydropyrazino[1,2-d]pyrido[3,2-b][1,4]diazepine], for which the EC50 was 5.97 µM and the Emax is 100%.
`COc1cccc(CN2Cc3ccccc3N3CCN(Cc4ccccc4)CC3C2)c1` (stereo not shown) [Example 135, 3-benzyl-6-(3-methoxybenzyl)-1,2,3,4,4a,5,6,7-octahydropyrazino[1,2-a][1,4]benzodiazepine]: the EC50 came out at 4.19 µM and the Emax came to 154%.
As to `Cc1cccc(CN2Cc3ccccc3N3CCN(Cc4ccccc4)CC3C2)c1` (stereo not shown) [Example 145, 3-benzyl-6-(3-methylbenzyl),-1,2,3,4,4a,5,6,7-octahydropyrazino[1,2-a][1,4]benzodiazepine], the 50% effective concentration (EC50) is 3.14 µM and the Emax is 151%.
In the same order, the values of `O=C(c1cncs1)N1Cc2ccccc2N2CCN(Cc3ccccc3)CC2C1` (stereo not shown) [Example 89, (3-benzyl-1,2,3,4,4a,5-hexahydropyrazino[1,2-a][1,4]benzodiazepin-6(7H)-yl)(1,3-thiazol-5-yl)methanone] are 1.83 µM and 140%.
In the case of `Cc1cc(CN2Cc3ccccc3N3CCN(Cc4ccccc4)CC3C2)oc1C` (stereo not shown) [Example 120, 3-benzyl-6-[(4,5-dimethyl-2-furyl)methyl]-1,2,3,4,4a,5,6,7-octahydropyrazino[1,2-a][1,4]benzodiazepine], the activation at 3 µM was -5%.
With `CN1CCN2c3ccccc3CN(C(=O)N3CCOCC3)CC2C1` (stereo not shown) [Example 77, (3-methyl-1,2,3,4,4a,5-hexahydropyrazino[1,2-a][1,4]benzodiazepin-6(7H)-yl)(morpholin-4-yl)methanone], the EC50 was found to be 10.2 µM and the Emax worked out at 57%.
Regarding `O=C(CCN1CCCCC1)N1Cc2ccccc2N2CCN(Cc3ccccc3)CC2C1` (stereo not shown) [Example 111, 1-(3-benzyl-1,2,3,4,4a,5-hexahydropyrazino[1,2-a][1,4]benzodiazepin-6(7H)-yl)-3-(piperidin-1-yl)propan-1-one], the activation at 3 µM stood at 162%.
Same read-out and setting: for `CCCN(C)C(=O)N1Cc2ccccc2N2CCN(Cc3ccccc3)CC2C1` (stereo not shown) [Example 170, 3-benzyl-N-methyl-N-propyl-1,2,3,4,4a,5-hexahydropyrazino[1,2-a][1,4]benzodiazepine-6(7H)-carboxamide] the value was 273%.
As for `c1ccc(CN2CCN3c4ccccc4CNCC3C2)cc1` (stereo not shown) [Example 2, 3-benzyl-1,2,3,4,4a,5,6,7-octahydropyrazino[1,2-a][1,4]benzodiazepine], the concentration giving a half-maximal response (EC50) worked out at 3.44 µM and the Emax stood at 186%.
Taken in the same sequence, the figures for `O=C(CC1CC1)N1Cc2ccccc2N2CCN(Cc3ccccc3)CC2C1` (stereo not shown) [Example 92, 1-(3-benzyl-1,2,3,4,4a,5-hexahydropyrazino[1,2-a][1,4]benzodiazepin-6(7H)-yl)-2-cyclopropylethanone] were 2.47 µM and 174%.
Consider `c1ccc(CN2CCN3c4ccccc4CN(Cc4ccncc4)CC3C2)cc1` (stereo not shown) [Example 30, 3-benzyl-6-(pyridin-4-ylmethyl)-1,2,3,4,4a,5,6,7-octahydropyrazino[1,2-a][1,4]benzodiazepine], for which the 50% effective concentration (EC50) turned out to be 3.6 µM and the Emax amounted to 216%.
Consider `CC(C)N1CCN(C(=O)N2Cc3ccccc3N3CCN(Cc4ccccc4)CC3C2)CC1` (stereo not shown) [Example 161, (3-benzyl-1,2,3,4,4a,5-hexahydropyrazino[1,2-a][1,4]benzodiazepin-6(7H)-yl)(4-isopropylpiperazin-1-yl)methanone], for which the EC50 turned out to be 3.18 µM and the Emax was 218%.
In the same order, the values of `O=C(c1ccn[nH]1)N1Cc2ccccc2N2CCN(Cc3ccccc3)CC2C1` (stereo not shown) [Example 86, (3-benzyl-1,2,3,4,4a,5-hexahydropyrazino[1,2-a][1,4]benzodiazepin-6(7H)-yl)(1H-pyrazol-5-yl)methanone] are 3.14 µM and 218%.
Turning to `Cc1ccc(CNC(=O)N2Cc3ccccc3N3CCN(Cc4ccccc4)CC3C2)o1` (stereo not shown) [Example 156, 3-benzyl-N-[(5-methyl-2-furyl)methyl]-1,2,3,4,4a,5-hexahydropyrazino[1,2-a][1,4]benzodiazepine-6(7H)-carboxamide], the EC50 is 2.4 µM and the Emax worked out at 152%.
Taken in the same sequence, the figures for `c1ccc(CN2CCN3c4ccccc4CN(c4cnccn4)CC3C2)cc1` (stereo not shown) [Example 11, 3-benzyl-6-(pyrazin-2-yl)-1,2,3,4,4a,5,6,7-octahydropyrazino[1,2-a][1,4]benzodiazepine] were 5.61 µM and 122%.
In the same order, the values of `CCOc1ccc(CN2Cc3ccccc3N3CCN(Cc4ccccc4)CC3C2)cc1` (stereo not shown) [Example 121, 3-benzyl-6-(4-ethoxybenzyl)-1,2,3,4,4a,5,6,7-octahydropyrazino[1,2-a][1,4]benzodiazepine] are 4.21 µM and 167%.
As for `FC(F)(F)c1ccc(CN2Cc3ccccc3N3CCN(Cc4ccccc4)CC3C2)cc1` (stereo not shown) [Example 21, 3-benzyl-6-[4-(trifluoromethyl)benzyl]-1,2,3,4,4a,5,6,7-octahydropyrazino[1,2-a][1,4]benzodiazepine], the half-maximal effective concentration (EC50) was 6.11 µM and the Emax came out at 168%.
In the same order, the values of `O=C(c1ccccc1)N1CCN2c3ccccc3CN(C(=O)N3CCOCC3)CC2C1` (stereo not shown) [Example 79, (3-benzoyl-1,2,3,4,4a,5-hexahydropyrazino[1,2-a][1,4]benzodiazepin-6(7H)-yl)(morpholin-4-yl)methanone] are 9.25 µM and 86%.
On to `CN1CCN2c3ccccc3CN(C(=O)c3ccccc3Cl)CC2C1` (stereo not shown) [Example 174, (2-chlorophenyl)(3-methyl-1,2,3,4,4a,5-hexahydropyrazino[1,2-a][1,4]benzodiazepin-6(7H)-yl)methanone], for which the activation at 3 µM was determined as 41%.
As to `COc1ccc(CN2Cc3ccccc3N3CCN(Cc4ccccc4)CC3C2)cc1C` (stereo not shown) [Example 119, 3-benzyl-6-(4-methoxy-3-methylbenzyl)-1,2,3,4,4a,5,6,7-octahydropyrazino[1,2-a][1,4]benzodiazepine], the EC50 was found to be 3.95 µM and the Emax is 172%.
Taken in the same sequence, the figures for `FC(F)(F)c1ccc(CN2Cc3ccccc3N3CCN(Cc4ccccc4)CC3C2)cn1` (stereo not shown) [Example 35, 3-benzyl-6-{[6-(trifluoromethyl)pyridin-3-yl]methyl}-1,2,3,4,4a,5,6,7-octahydropyrazino[1,2-a][1,4]benzodiazepine] were 2.86 µM and 159%.
In the same order, the values of `O=C(NC1CCC1)N1Cc2ccccc2N2CCN(Cc3ccccc3)CC2C1` (stereo not shown) [Example 169, 3-benzyl-N-cyclobutyl-1,2,3,4,4a,5-hexahydropyrazino[1,2-a][1,4]benzodiazepine-6(7H)-carboxamide] are 0.816 µM and 173%.

Broadly, the EC50 is the concentration giving half of the maximal effect.
